{"source": "ChEMBL document CHEMBL1128565", "about": "“Aspartyl alpha-((diphenylphosphinyl)oxy)methyl ketones as novel inhibitors of interleukin-1 beta converting enzyme. Utility of the diphenylphosphinic acid leaving group for the inhibition of cysteine proteases” (J Med Chem, 1995)"}
{"molecular_target": "T1, Calpain-1 catalytic subunit (Homo sapiens) (UniProt P07384)", "T1 sequence (whole entry)": "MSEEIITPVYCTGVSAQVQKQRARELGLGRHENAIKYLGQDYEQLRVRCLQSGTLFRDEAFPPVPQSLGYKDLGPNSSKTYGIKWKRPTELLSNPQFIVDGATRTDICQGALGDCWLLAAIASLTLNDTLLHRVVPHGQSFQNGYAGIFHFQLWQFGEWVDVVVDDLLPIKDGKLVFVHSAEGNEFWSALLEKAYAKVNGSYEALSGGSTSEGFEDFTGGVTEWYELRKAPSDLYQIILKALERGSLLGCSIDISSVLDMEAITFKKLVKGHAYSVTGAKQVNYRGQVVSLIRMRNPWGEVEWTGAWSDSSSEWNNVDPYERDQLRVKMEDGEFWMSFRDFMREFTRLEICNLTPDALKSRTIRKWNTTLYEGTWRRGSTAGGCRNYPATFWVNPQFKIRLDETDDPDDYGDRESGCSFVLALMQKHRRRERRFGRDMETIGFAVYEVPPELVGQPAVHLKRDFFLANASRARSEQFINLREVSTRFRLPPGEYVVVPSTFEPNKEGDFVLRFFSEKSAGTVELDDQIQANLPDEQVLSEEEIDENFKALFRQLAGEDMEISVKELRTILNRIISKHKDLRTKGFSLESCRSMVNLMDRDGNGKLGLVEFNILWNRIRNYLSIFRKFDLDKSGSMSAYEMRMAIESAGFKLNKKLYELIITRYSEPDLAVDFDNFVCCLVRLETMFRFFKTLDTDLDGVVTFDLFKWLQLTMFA", "experiment": "Inhibition of Human erythrocyte calpain 1 using a continuous assay at pH 7.5 and 8 degrees Centigrade", "units": {"K obs / 1": "M⁻¹ s⁻¹"}}
{"smiles": "C[C@H](NC(=O)[C@@H](Cc1ccccc1)NC(=O)OCc1ccccc1)C(=O)COC(=O)c1c(Cl)cccc1Cl", "K obs / 1": 300}
{"smiles": "CC(C)C[C@@H](NC(=O)OCc1ccccc1)C(=O)N[C@@H](Cc1ccccc1)C(=O)COP(=O)(c1ccccc1)c1ccccc1", "K obs / 1": 10000}
{"smiles": "CC(C)C[C@@H](NC(=O)[C@@H](C)NC(=O)OCc1ccccc1)C(=O)N[C@H](Cc1ccccc1)C(=O)COC(=O)c1c(F)ccc(OCCN2CCOCC2)c1F", "K obs / 1": 32000}
{"smiles": "CC(C)C[C@@H](NC(=O)[C@@H](C)NC(=O)OCc1ccccc1)C(=O)N[C@H](Cc1ccccc1)C(=O)COC(=O)c1c(F)cccc1F", "K obs / 1": 31000}
{"molecular_target": "T2, Caspase-1 (Homo sapiens) (UniProt P29466)", "T2 sequence (whole entry)": "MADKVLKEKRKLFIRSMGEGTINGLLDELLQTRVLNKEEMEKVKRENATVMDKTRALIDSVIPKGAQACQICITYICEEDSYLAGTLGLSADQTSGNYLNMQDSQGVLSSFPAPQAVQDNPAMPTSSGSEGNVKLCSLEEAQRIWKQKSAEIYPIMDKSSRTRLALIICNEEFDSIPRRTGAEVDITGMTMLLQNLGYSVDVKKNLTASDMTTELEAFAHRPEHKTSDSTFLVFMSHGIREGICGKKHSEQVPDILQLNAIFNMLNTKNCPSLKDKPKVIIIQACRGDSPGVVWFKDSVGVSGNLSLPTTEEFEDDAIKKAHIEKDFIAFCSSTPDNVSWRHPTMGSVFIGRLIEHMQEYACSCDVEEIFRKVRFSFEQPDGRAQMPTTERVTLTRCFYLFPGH", "experiment": "Inhibition of interleukin-1-beta converting enzyme at pH 7.4, 37 degree C", "units": {"K obs / 1": "M⁻¹ s⁻¹"}}
{"smiles": "CC(C)[C@@H](NC(=O)OCc1ccccc1)C(=O)N[C@@H](CC(=O)O)C(=O)CO[PH](=O)c1ccccc1", "note": "(some centres not stated)", "K obs / 1": "< 500"}
{"smiles": "CC(C)[C@@H](NC(=O)OCc1ccccc1)C(=O)N[C@@H](CC(=O)O)C(=O)COc1cc(C(F)(F)F)nn1-c1ccccc1", "K obs / 1": 20000}
{"smiles": "CC(C)[C@@H](NC(=O)OCc1ccccc1)C(=O)N[C@@H](CC(=O)O)C(=O)COC(=O)c1c(Cl)cccc1Cl", "K obs / 1": 30000}
{"smiles": "O=C(O)C[C@H](NC(=O)OCc1ccccc1)C(=O)COP(=O)(c1ccccc1)c1ccccc1", "K obs / 1": 11800}
{"smiles": "C[C@H](NC(=O)[C@@H](Cc1ccccc1)NC(=O)OCc1ccccc1)C(=O)COC(=O)c1c(Cl)cccc1Cl", "K obs / 1": "< 500"}
{"smiles": "C[C@H](NC(=O)[C@@H](Cc1ccccc1)NC(=O)OCc1ccccc1)C(=O)COc1cc(C(F)(F)F)nn1-c1ccccc1", "K obs / 1": "< 500"}
{"smiles": "CC(C)[C@@H](NC(=O)OCc1ccccc1)C(=O)N[C@@H](CC(=O)O)C(=O)COP(=O)(c1ccc(Cl)cc1)c1ccc(Cl)cc1", "K obs / 1": 77300}
{"smiles": "CC(C)[C@@H](NC(=O)OCc1ccccc1)C(=O)N[C@@H](CC(=O)O)C(=O)COP(C)(C)=O", "K obs / 1": 12300}
{"smiles": "CC(C)[C@H](NC(=O)OCc1ccccc1)C(=O)N[C@@H](C)C(=O)N[C@@H](CC(=O)O)C(=O)COP(=O)(c1ccc(Cl)cc1)c1ccc(Cl)cc1", "K obs / 1": 230000}
{"smiles": "CC(C)C[C@@H](NC(=O)OCc1ccccc1)C(=O)N[C@@H](Cc1ccccc1)C(=O)COP(=O)(c1ccccc1)c1ccccc1", "K obs / 1": "< 500"}
{"smiles": "C[C@H](NC(=O)[C@@H](Cc1ccccc1)NC(=O)OCc1ccccc1)C(=O)COP(=O)(c1ccccc1)c1ccccc1", "K obs / 1": "< 500"}
{"smiles": "CC(C)[C@@H](NC(=O)OCc1ccccc1)C(=O)N[C@@H](CC(=O)O)C(=O)COP(=O)(c1ccccc1)c1ccccc1", "K obs / 1": 50200}
{"molecular_target": "Cathepsin B (Homo sapiens) (UniProt P07858)", "experiment": "Inhibition of Cathepsin B at pH 6.5 and 360000 (1/M 1/s) at 8 degrees Centigrade.", "units": {"K obs / 1": "M⁻¹ s⁻¹"}}
{"smiles": "C[C@H](NC(=O)[C@@H](Cc1ccccc1)NC(=O)OCc1ccccc1)C(=O)COC(=O)c1c(Cl)cccc1Cl", "K obs / 1": "1.5e+06"}
{"molecular_target": "T1, Calpain-1 catalytic subunit (Homo sapiens)", "experiment": "Inhibition of Human erythrocyte calpain 1 using a continuous assay at pH 7.5 and 8 degrees Centigrade.", "units": {"K obs / 1": "M⁻¹ s⁻¹"}}
{"smiles": "C[C@H](NC(=O)[C@@H](Cc1ccccc1)NC(=O)OCc1ccccc1)C(=O)COc1cc(C(F)(F)F)nn1-c1ccccc1", "K obs / 1": "< 500"}
{"smiles": "CC(C)C[C@@H](NC(=O)OCc1ccccc1)C(=O)N[C@@H](Cc1ccccc1)C(=O)COC(=O)c1c(Cl)cccc1Cl", "K obs / 1": 11400}
{"smiles": "CC(C)C[C@@H](NC(=O)OCc1ccccc1)C(=O)N[C@@H](Cc1ccccc1)C(=O)COc1cc(C(F)(F)F)nn1-c1ccccc1", "K obs / 1": "< 500"}
{"molecular_target": "Cathepsin B (Homo sapiens) (UniProt P07858)", "experiment": "Inhibition of Cathepsin B at 8 degrees Centigrade.", "units": {"K obs / 1": "M⁻¹ s⁻¹"}}
{"smiles": "CC(C)C[C@@H](NC(=O)[C@@H](C)NC(=O)OCc1ccccc1)C(=O)N[C@H](Cc1ccccc1)C(=O)COC(=O)c1c(F)ccc(OCCN2CCOCC2)c1F", "K obs / 1": 400}
{"smiles": "CC(C)C[C@@H](NC(=O)[C@@H](C)NC(=O)OCc1ccccc1)C(=O)N[C@H](Cc1ccccc1)C(=O)COC(=O)c1c(F)cccc1F", "K obs / 1": 100}
{"molecular_target": "Cathepsin B (Homo sapiens) (UniProt P07858)", "experiment": "Inhibition of Cathepsin B at pH 6.5 and 25 degrees Centigrade.", "units": {"K obs / 1": "M⁻¹ s⁻¹"}}
{"smiles": "CC(C)[C@@H](NC(=O)OCc1ccccc1)C(=O)N[C@@H](CC(=O)O)C(=O)COc1cc(C(F)(F)F)nn1-c1ccccc1", "K obs / 1": "< 500"}
{"smiles": "C[C@H](NC(=O)[C@@H](Cc1ccccc1)NC(=O)OCc1ccccc1)C(=O)COc1cc(C(F)(F)F)nn1-c1ccccc1", "K obs / 1": 2300}
{"smiles": "CC(C)C[C@@H](NC(=O)OCc1ccccc1)C(=O)N[C@@H](Cc1ccccc1)C(=O)COP(=O)(c1ccccc1)c1ccccc1", "K obs / 1": "< 500"}
{"smiles": "C[C@H](NC(=O)[C@@H](Cc1ccccc1)NC(=O)OCc1ccccc1)C(=O)COP(=O)(c1ccccc1)c1ccccc1", "K obs / 1": 400000}
{"smiles": "CC(C)C[C@@H](NC(=O)OCc1ccccc1)C(=O)N[C@@H](Cc1ccccc1)C(=O)COc1cc(C(F)(F)F)nn1-c1ccccc1", "K obs / 1": "< 500"}
{"smiles": "CC(C)[C@H](NC(=O)OCc1ccccc1)C(=O)N[C@@H](C)C(=O)N[C@@H](CC(=O)O)C(=O)COP(=O)(c1ccccc1)c1ccccc1", "K obs / 1": 1700}
{"smiles": "CC(C)[C@@H](NC(=O)OCc1ccccc1)C(=O)N[C@@H](CC(=O)O)C(=O)COP(=O)(c1ccccc1)c1ccccc1", "K obs / 1": "< 500"}
{"molecular_target": "Cathepsin B (Homo sapiens) (UniProt P07858)", "experiment": "Inhibition of Cathepsin B at pH 6.5 and 250 (1/M 1/s) 8 degrees Centigrade.", "units": {"K obs / 1": "M⁻¹ s⁻¹"}}
{"smiles": "CC(C)C[C@@H](NC(=O)OCc1ccccc1)C(=O)N[C@@H](Cc1ccccc1)C(=O)COC(=O)c1c(Cl)cccc1Cl", "K obs / 1": "< 1000"}
{"molecular_target": "Procathepsin L (Homo sapiens) (UniProt P07711)", "sequence (P07711 114-333 limits assumed)": "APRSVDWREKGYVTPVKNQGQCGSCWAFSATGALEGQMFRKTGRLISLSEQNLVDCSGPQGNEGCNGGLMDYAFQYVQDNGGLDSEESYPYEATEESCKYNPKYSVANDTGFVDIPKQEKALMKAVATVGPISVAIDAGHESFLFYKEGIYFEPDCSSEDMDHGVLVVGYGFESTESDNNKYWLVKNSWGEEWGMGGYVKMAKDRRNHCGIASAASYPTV", "experiment": "Inhibitory activity against Cathepsin L at 8 degrees Centigrade.", "units": {"K obs / 1": "M⁻¹ s⁻¹"}}
{"smiles": "CC(C)C[C@@H](NC(=O)[C@@H](C)NC(=O)OCc1ccccc1)C(=O)N[C@H](Cc1ccccc1)C(=O)COC(=O)c1c(F)ccc(OCCN2CCOCC2)c1F", "K obs / 1": 28000}
{"smiles": "CC(C)C[C@@H](NC(=O)[C@@H](C)NC(=O)OCc1ccccc1)C(=O)N[C@H](Cc1ccccc1)C(=O)COC(=O)c1c(F)cccc1F", "K obs / 1": 300}
